Experimental data published in patent US20240197750A1, “CEFTIBUTEN DOSING REGIMENS” (QPEX Biopharma, Inc., priority 2021, published 2024).

How the values were obtained:
[1] = Pharmacokinetics of single and multiple oral doses of ceftibuten in healthy adult subjects; assay type: in vivo, human; details: for dose proportionality of exposure (Cmax, AUC0-12, AUC0-∞): doses of 400, 600 and 800 mg of ceftibuten
Procedure: (§1) A double-blind, randomized, placebo-controlled, sequential ascending single- and multiple dose study of ceftibuten in healthy adult subjects was conducted. There were four cohorts of 10 subjects each who received both single and multiple oral doses (8 active and 2 placebo).
Dose proportionality was examined graphically and using an ANOVA test of the dose-normalized Cmax, AUC0-12 and AUC0-∞ values. […] The AUC0-12 exposure of cis-ceftibuten is shown in FIG. 1 and the AUC0-12 exposure of trans-ceftibuten is shown in FIG. 2, showing that increases were dose proportional.

[2] = system: 99 strains of Enterobacterales; experiment: Resistance development study: mutant prevention concentration (MPC) of Compound 1 with ceftibuten; assay type: cell-based
Procedure: 99 strains of Enterobacterales were used in resistance development studies using ceftibuten at 1 or 2 μg/ml in combination with various concentrations of the following β-lactamase inhibitor:
Compound 1 is described in PCT Publication No. WO 2018/005662, which is incorporated herein by reference in its entirety. Concentrations of Compound 1 included 1, 2, 4 and 8 μg/ml. The goal of the study was to identify the concentration of Compound 1 (MPC, mutant prevention concentration) that will prevent appearance of mutants at two different concentrations of ceftibuten.

[3] = Safety of single and multiple ascending oral doses of ceftibuten in healthy adult subjects; assay type: in vivo
Procedure: as §1
The event of nausea occurred in one subject in the SAD period following single administration of ceftibuten and the event of […] occurred in one subject in the MAD period following administration of the ceftibuten. […] The nausea was considered to be moderate in severity and diarrhea considered to be mild in severity with both events deemed by the investigator to be related to the study drug. The nausea persisted from Day 1 dose (SAD) until after Day 4 morning dose (MAD), despite treatment with concomitant medications. […] The incidence of treatment-related TEAEs was similar in the 400 mg (1 [12.5%] of 8 subjects) and 600 mg (2 [25.0%] of 8 subjects) ceftibuten and Pooled Placebo groups (3 [37.5%] of 8 subjects). […] The highest incidence was reported in the highest ceftibuten dose (800 mg). The most common gastrointestinal TEAEs in the 800 mg group during the MAD period were nausea in 4 out of 16 subjects (25.0%), diarrhea in 4 of 16 (25.0%), abdominal pain in 3 of 16 (18.8%), upper abdominal pain in 3 of 16 (18.8%) and abdominal discomfort in 2 of 16 subjects (12.5%). Most Gastrointestinal Disorder TEAEs were transient and mild in severity with no intervention required. […] All events were asymptomatic, resolved spontaneously after the completion of study treatment, and were not associated with elevations of alkaline phosphatase or bilirubin. • There was no trend in abnormalities that were NCS in hematology, coagulation, or urinalysis parameters.

[4] = multiple oral doses 400 mg ceftibuten BID
[5] = multiple oral doses 600 mg ceftibuten BID
[6] = multiple oral doses 800 mg ceftibuten BID
[7] = single oral dose 400 mg ceftibuten
[8] = single oral dose 600 mg ceftibuten
[9] = single oral dose 800 mg ceftibuten

Row | Structure (SMILES) | terminal half-life ([1]; 400-800 mg ceftibuten oral) [h] | time of peak plasma concentration post-dose ([1]; 400-800 mg ceftibuten oral) [h] | urinary recovery, % of the administered dose ([1]; after multiple doses) | urinary recovery, % of the administered dose ([1]; after single doses) | dose proportionality of exposure (Cmax, AUC0-12, AUC0-∞) [1] | mean maximum plasma concentration [1, 4] [µg/mL] | mean maximum plasma concentration [1, 5] [µg/mL] | mean maximum plasma concentration [1, 6] [µg/mL] | mean maximum plasma concentration [1, 7] [µg/mL] | mean maximum plasma concentration [1, 8] [µg/mL] | mean maximum plasma concentration [1, 9] [µg/mL] | also measured
1 | Nc1nc(/C(=C/CC(=O)O)C(=O)N[C@@H]2C(=O)N3C(C(=O)O)=CCS[C@H]23)cs1 (relative stereo) [cis-ceftibuten] | 2.3 to 3.1 | 2.3 to 3.0 | 75.8-100% | 59.5-86.9% | increased proportionally | 21.7 | 28.1 | 38.8 | 17.6 | 24.1 | 28.1 | renal clearance ([1]; 400-800 mg ceftibuten oral): 2.9 to 4.2 L/h; total body clearance ([1]; 400-800 mg ceftibuten oral): 3.9 to 5.0 L/h
2 | Nc1nc(/C(=C\CC(=O)O)C(=O)N[C@@H]2C(=O)N3C(C(=O)O)=CCS[C@H]23)cs1 (relative stereo) [trans-ceftibuten] | 3.0 to 3.6 | 3.3 to 4.8 | 14.1-16.8% | 9.3-12.5% | increased proportionally | 1.4 | 1.9 | 2.8 | 1.1 | 1.5 | 2.2 | 
3 | O=C([O-])c1c(F)ccc2c1O[B-](O)(O)[C@@H]1C[C@H]21.[Na+].[Na+] [Compound 1] |  |  |  |  |  |  |  |  |  |  |  | % Strains with Compound 1 MPC <= 4 ug/ml ([2]; ceftibuten at 1 μg/ml, strains with Ceftibuten/Compound 1 MIC 0.125 (20 strains)): 90.0%; % Strains with Compound 1 MPC <= 4 ug/ml ([2]; ceftibuten at 1 μg/ml, strains with Ceftibuten/Compound 1 MIC 0.25 (16 strains)): 56.3%; % Strains with Compound 1 MPC <= 4 ug/ml ([2]; ceftibuten at 1 μg/ml, strains with Ceftibuten/Compound 1 MIC 0.5 (14 strains)): 21.4%; % Strains with Compound 1 MPC <= 4 ug/ml ([2]; ceftibuten at 1 μg/ml, strains with Ceftibuten/Compound 1 MIC 1 (12 strains)): 8.3%; % Strains with Compound 1 MPC <= 4 ug/ml ([2]; ceftibuten at 1 μg/ml, strains with Ceftibuten/Compound 1 MIC 2 (7 strains)): 28.6%; % Strains with Compound 1 MPC <= 4 ug/ml ([2]; ceftibuten at 1 μg/ml, strains with Ceftibuten/Compound 1 MIC <=0.06 (30 strains)): 96.7%; % Strains with Compound 1 MPC <= 4 ug/ml ([2]; ceftibuten at 2 μg/ml, strains with Ceftibuten/Compound 1 MIC 0.125 (20 strains)): 95.0%; % Strains with Compound 1 MPC <= 4 ug/ml ([2]; ceftibuten at 2 μg/ml, strains with Ceftibuten/Compound 1 MIC 0.25 (16 strains)): 87.5%; % Strains with Compound 1 MPC <= 4 ug/ml ([2]; ceftibuten at 2 μg/ml, strains with Ceftibuten/Compound 1 MIC 0.5 (14 strains)): 57.1%; % Strains with Compound 1 MPC <= 4 ug/ml ([2]; ceftibuten at 2 μg/ml, strains with Ceftibuten/Compound 1 MIC 1 (12 strains)): 16.7%; % Strains with Compound 1 MPC <= 4 ug/ml ([2]; ceftibuten at 2 μg/ml, strains with Ceftibuten/Compound 1 MIC 2 (7 strains)): 28.6%; % Strains with Compound 1 MPC <= 4 ug/ml ([2]; ceftibuten at 2 μg/ml, strains with Ceftibuten/Compound 1 MIC <=0.06 (30 strains)): 100.0%
4 | Nc1nc(/C(=C/CC(=O)O)C(=O)N[C@@H]2C(=O)N3C(C(=O)O)=CCS[C@H]23)cs1 [ceftibuten] |  |  |  |  |  |  |  |  |  |  |  | frequency of reported TEAEs versus dose ([3]; MAD period, 400-800 mg BID): did not increase with increasing ceftibuten dose; serious, severe, life-threatening TEAEs or TEAEs resulting in death ([3]; SAD and MAD periods): no serious, severe, life-threatening TEAEs, or TEAEs resulting in death; frequency of reported TEAEs versus dose ([3]; SAD period, 400-800 mg): did not increase with increasing ceftibuten dose; ALT elevations ([3]; human, in vivo): incidence and severity of which did not increase with increasing ceftibuten dose; abnormalities in ECG parameters or physical examination ([3]; human, in vivo): no CS abnormalities; number of TEAEs reported ([3]; human, in vivo): 44; severity of TEAEs ([3]; human, in vivo): All TEAEs were mild, regardless of causality, with the exception of 2 TEAEs; vital sign parameters (blood pressure, pulse rate, body temperature, respiratory rate) ([3]; human, in vivo): no trends in changes from Baseline
